“Also recorded” adds a separate entry of the source.
Assays:
MMP-1 = MMP-1 expression ELISA in CCL-110 fibroblasts, with and without TNF-α; format: cell-based, human; design: MMP-1 expression compared to untreated CCL-110 cells: dose or concentration left out as unconfirmed; settings: for MMP-1 protein expression: CCL-110 fibroblasts, 24 hours, 0-100 μg mL−1, without TNF-α
Description: CCL-110 skin fibroblast cells (10^5 mL^−1) were plated in 0.5% FBS containing EMEM for 24 hours for starvation and then treated with increasing concentrations of GU-TC7 and CoQ10 (0-100 μg mL^−1) for another 24 hours with and without the positive control ([…]). The medium was harvested and analyzed for MMP-1 (ng mL^−1) using the human MMP-1 ELISA kit from R&D Systems (Minneapolis, Minn., U.S.A.) according to the manufacturer's instructions. MMP-1 ELISA studies were repeated three times, with duplicate samples in each assay.

3T3-L1 adipocytes = experiment: Glucose uptake in differentiated adipocytes; format: cell-based; settings: 72 hours
Description: 3T3-LI preadipocytes were used for glucose uptake and they were differentiated in the same manner as for adipocyte staining. The differentiated adipocytes (0.5×10^6) were treated with increasing concentrations (2-100 μg/ml) of guggul extracts for 72 hours in DMEM medium containing 1 μM insulin. 2,4-Thiazolidinedione (0.005 μM-0.1 μM) was used as a positive control for comparison. After 72 hours, the medium was replaced with starving medium (DMEM without FBS) for 2 hours at 37° C. and then with 3 ml KRH buffer (136 mM NaCl, 4.7 mM KCl, 1.25 mM CaCl2, 1.25 mM Mg SO4, 10 mM Hepes, pH 7.4) with 1 uM insulin at 37° C. for 30 min. For glucose uptake, 4.5 mg/ml glucose was added into the KRH buffer and plates were incubated for another 15 min. The plates were washed 4 times with KRH buffer, cells were lysed with RIPA buffer (0.5 ml/plate). The protein concentration of the extract was estimated and 500 ug extract was used for glucose estimation using the assay kit from Sigma Chemical Co., MO. The absorbance of the reaction mixture was measured at 340 nm and glucose concentration calculated.

HSP70 = HSP70 expression ELISA in Menadione-stressed HepG2 cells; format: cell-based, human; settings: 50 μM, 3 hours
Description: A human liver cell line (HepG2) was used to study the expression of HSP70 in GU-MCT treated cells. The cells (2×10^6/4 ml) were grown in Eagles minimal essential medium and treated with 50 μM Menadione (Vitamin K analogue) for 3 hours in order to induce stress in the presence or absence of increasing concentrations of GU-MCT (0-100 μg/ml). The cells were harvested by scraping and cell lysate prepared by homogenizing cells in 0.5 ml of lysis buffer (R&D systems, Minneapolis, Minn.). Protein concentration of cell lysate was estimated and 10 μg protein was used for ELISA. The ELISA kit from R&D systems, MN was used to analyze the HSP70 protein expression (pg/ml) in the cell extract. The percentage of change in HSP70 expression was calculated based on the expression in untreated sample (100%).

HepG2 cells = experiment: HDL and LDL/VLDL cholesterol quantification in HepG2 cells; format: cell-based, human
Description: HepG2 cells (2×106) were incubated with increasing concentrations of Glucodox (0-100 ug/ml) for 72 hours at 37° C. The cells, after washing with PBS, were lysed with methanol:choloroform […] solution. Both HDL an LDL fractions were separated and estimated using the HDL and LDL/VLDL quantification kit (MBL International Corporation, MA).

CCL-110 skin fibroblasts = experiment: Cytotoxicity assay (MTT, Cell Proliferation I kit); format: cell-based, human; settings: up to 100 μg mL−1, 24 hours
Description: CCL-110 skin fibroblasts were cultured and plated at a density of 0.5×10^4 cells per well in 96-well tissue culture multiwell plates in EMEM medium. On the next day when cells were attached, they were treated with increasing concentrations (0-100 μg mL^−1) of GU-TC7 and CoQ10 (CoQ10 purchased from Sigma Chemical Co., St. Louis, Mo., U.S.A.) at 37° C. for 24 hours in a CO2 incubator maintained at 5% CO2 and 95% air. Cell proliferation assay was performed using the Cell Proliferation I kit (Roche Biochemicals, Indianapolis, Ind., U.S.A.) according to the manufacturer's protocol. The percentage survival of cells at each concentration was calculated based on the untreated control and plotted against drug concentrations (Cochrane, C. B. et al. “Anticancer effects of Annona glabra plant extracts in human leukemic cell lines” Anticancer Res., 2008, 28:965-971). Cytotoxicity assay was repeated three times with triplicate samples in each and mean values calculated.

type I collagen = experiment: Collagen type I expression ELISA in CCL-110 fibroblasts; format: cell-based, human; settings: 24 hours, increasing concentrations
Description: CCL-110 human fibroblast cells (0.5×10^6) were treated with increasing concentrations of GU-TC7 and CoQ10 for 24 hours in 0.5% starving medium. On the next day, the medium was completely removed, washed with phosphate buffered saline once and lysed with 500 μL of 0.05 M acetic acid (pH 2.8-3.0) and 50 μL of pepsin solution by incubating at 4° C. for 48 hours. Later, […] of 10×TBS (1 M Tris, 2 M NaCl, 50 mM CaCl2) was added, and pH was adjusted to 8.0 with 1 N NaOH, and 50 μL of human pancreatic elastase was added followed by the incubation for another 48 hours at 4° C. The cells were scraped and transferred to eppendorf tubes and centrifuged for 10 min at 10 000 rpm. The supernatant was transferred to a new eppendorf tube, and protein concentration of the extract was determined. The type I collagen in the extract was analyzed using the human type 1 collagen ELISA kit from MD Bio-products (St. Paul, […]., U.S.A.).

human elastase = experiment: PMN-elastase expression ELISA in CCL-110 fibroblasts; format: cell-based; settings: 24 hours
Description: CCL-110 skin fibroblast cells (10^6) were plated in EMEM containing 0.5% FBS and treated with increasing concentrations of GU-TC7 and CoQ10 for 24 hours in a CO2 incubator. The monolayer was lysed with 500 μL of RIPA buffer (50 mM Tris PH 7.4, 150 mM NaCl, 0.1% SDS, 0.5% Sodium deoxycholate, 1% Triton X-100 with one tablet for 25 mL of buffer) and protein concentration of the cellular extract was determined. Cellular extract (100 μg protein) was analyzed for the expression of human elastase using the PMN-Elastase ELISA kit form Alpco Immunoassays (Salem, N.H., U.S.A.).

Question: TNF-α was tested. Which “MMP-1 expression compared to untreated CCL-110 cells” value (MMP-1; TNF-α treatment) did it give?
Answer: The value was “three times”.

Question: With O=C1CSC(=O)N1 [2,4 Thiazolidinedione, 2,4-Thiazolidinedione] as the compound, how does the “glucose uptake (insulin sensitivity)” value (3T3-L1 adipocytes) read?
Answer: Its value is “more potent than the guggul extracts”.

Question: CC1=CC(=O)c2ccccc2C1=O [Menadione] was tested. Which “down regulation of HSP70 expression” value (HSP70) did it give?
Answer: Its value is 40%.

Question: With CC[C@H](C)C(=O)O[C@H]1CCC=C2C=C[C@H](C)[C@H](CC[C@@H]3C[C@@H](O)CC(=O)O3)[C@H]21 [Mevastatin] as the compound, how does the “HDL in cellular extracts and cell culture medium” value (HepG2 cells) read?
Answer: Its value is “not induced”.

Question: How did the “cytotoxic effects on CCL-110 skin fibroblasts” value (CCL-110 skin fibroblasts) turn out when COC1=C(OC)C(=O)C(C/C=C(\C)CC/C=C(\C)CC/C=C(\C)CC/C=C(\C)CC/C=C(\C)CC/C=C(\C)CC/C=C(\C)CC/C=C(\C)CC/C=C(\C)CCC=C(C)C)=C(C)C1=O [CoQ10, coenzyme Q10] was run?
Answer: Its value is “no cytotoxic effects”.

Question: And the “cytotoxic effects on CCL-110 skin fibroblasts” value (CCL-110 skin fibroblasts; listed as Coenzyme Q10)?
Answer: The value was “little cytotoxicity”.

Question: What about the MMP-1 protein expression (MMP-1) of the same compound?
Answer: Its MMP-1 protein expression is “inhibits MMP-1 at 5 μg mL^−1, the inhibition rate remained almost constant with increasing concentrations”.

Question: What about the MMP-1 protein expression (MMP-1; listed as Coenzyme Q10) of the same compound?
Answer: The MMP-1 protein expression was “inhibition of MMP-1 expression”.

Question: And the “type I collagen synthesis” value (type I collagen)?
Answer: The value was “inhibitory trend was noticed with increasing doses”.

Question: And the “type I collagen synthesis” value (type I collagen; listed as Coenzyme Q10)?
Answer: Its value is “enhanced synthesis of type I collagen”.

Question: What about the human elastase expression (human elastase) of the same compound?
Answer: Its human elastase expression is “no such inhibition was evident; also recorded: no inhibition of elastase at any evaluated concentration”.

From patent US9913870B2, “Method for stimulating AMP-activated protein kinase” (DHARMA BIOMEDICAL, LLC, priority 2012, dated 2018)
